Read-outs that look alike come from different tables or passages of the source.
Assays:
[1] = tested on: AhR (dioxin response elements); assay: DRE12-6 luciferase assay (HepG2 with dioxin response elements)
Description: FIG. 25A: DRE12-6 cells were treated for 28 hours with the indicated concentrations of phytochemicals. FIG. 25B: DRE12-6 cells were treated with the indicated chemicals for 3 hours prior to co-treatment with 2,3,7,8-tetrachlorodibenzo-p-dioxin (TCDD) for 28 hours.
Chemical treatment was followed by cell lysis and luciferase measurement.
FIG. 26A: DRE12-6 cells were inoculated into a 96-well plate (2×10^4 cells per well) a day prior to treatment and treated for 28 hours with the indicated concentrations of the environmental contaminants (PAHs, PAH derivatives, PCBs, or pesticide derivatives). FIG. 26B: DRE12-6 cells were treated with the indicated chemicals for 3 hours prior to co-treatment with 2,3,7,8-tetrachlorodibenzo-p-dioxin (TCDD) for 28 hours.
The luciferase-SV40 promoter vector, with the three copies of the dioxin response elements, was transfected into HepG2 cells, which were put under neomycin selection to yield the stable cell line DRE12-6, for detection of AhR-dependent transactivation.
Luciferase assay: Luciferase assays using the LucLite system (Packard Instrument Co., Meriden, Conn.) were performed according to the manufacturer's instructions. Results were expressed as relative light units or fold induction, relative to DMSO-treated control cells. The data represent the mean±standard deviation of experiments performed in duplicate.

CYP1A1 mRNA [2] = assay: Northern blot of CYP1A1 mRNA in primary cultures of human hepatocytes (Example II); details: hepatocytes
Description: Six well plates containing human hepatocytes were obtained from the Liver Tissue Procurement and Distribution System (LTPADS, University of Minnesota, Minneapolis, Minn.). […] All inducers were dissolved in DMSO and added to media at a 0.1% final concentration of this reagent. After treatment, media was removed and cells harvested for RNA isolation.
(§1) Total RNA from hepatocytes or HepG2 cells was isolated using Trizol™ reagent (Gibco BRL Products, Gaithersburg, Md.) and quantified by measuring absorbance at 260 nm; purity was assessed by determining the 260/280 nm ratio. […] A cDNA probe for human 18S RNA probe (Ambion, Austin Tex.) was used to normalize the amount of RNA loaded in each lane. […] Autoradiographs of Northern blots were quantified by densitometry using a Model GS-670 Imaging Densitometer equipped with Molecular Analysis/Mac version 1.1.1. Image Analysis software (BioRad laboratories, Hercules, Calif.) or by scaning autoradiograms with a ScanMaker II (Microtek) and digitized with Un-Scan-It software (Silk Scientific, Orem Utah). Exposure times used were in the linear range of the film, Kodak XAR-5.

[3] = tested on: PXR / CYP3A4 response elements; assay: DPX2 (Hepg-hPXR/3A4-Luc) luciferase assay; details: DPX2 cells, 48 hours
Description: Compounds tested included known PXR ligands and conventional drugs (FIG. 30A), environmental contaminants (FIG. 30B), and herbal supplements (FIG. 30C). DPX2 cells were cultured with DMEM supplemented with 10% fetal bovine serum and neomycin. Cells were inoculated into 96-well plate at a density of 1×10^4 cells per well the day before treatment.
2. […] In addition, a distal enhancer module, XREM, was amplified by PCR using the sense primer
The resulting amplified XREM fragment was ligated upstream of PXRE containing a 3A4 promoter, into a luciferase vector.
A neomycin resistance gene was generated by PCR amplification using the pcDNA3.1 plasmid (Invitrogen, Carlsbad, Calif.), which encodes a neomycin resistant gene, as a DNA template. The sense primer had the sequence […] Amplification was followed by SalI digestion of the PCR product, and the resulting fragment ligated to the SalI-digested PGL3-promoter plasmid, which contains luciferase as a reporter gene. […] The CYP3A4 cell line DPX2 (Hepg-hPXR/3A4-Luc) was established by double transfection with the PXR expression plasmid and the luciferase plasmid containing CYP3A4 PXR response element under selection with both neomycin and hygromycin.

[4] = tested on: PXR / mdr1(dr4) response element; assay: Hep-PXR/Pgp-Luc stable cell luciferase assay; details: 48 hours; for dose dependence of luciferase induction (in words): Hep-PXR/Pgp-Luc cells; for strength of luciferase induction (in words): Hep-PXR/PgpLuc cells, omeprazole 100 micromoles per liter versus rifampicin 10 micromoles per liter
Description: (§2) FIG. 35 depicts dose-response behavior to various PXR activators in stable cell lines overexpressing PXR and harboring DR4 response element. FIG. 35A: Results are shown for the stable cell line Hep-PXR/PgpLuc. FIG. 35B: Results are shown for the stable cell line Caco-PXR/PgpLuc.
(§3) Cells were exposed to the test compounds for 48 hours at the concentrations indicated.
FIG. 36 depicts the effect of environmental and botanical chemicals on luciferase activity in the stable cell line Hep-PXR/PgpLuc. Cells were inoculated into 96-well plates at a density of 2×10^4 cells per well. After overnight recovery, cells were treated with the test compounds at the concentrations indicated for 48 hours.
(§4) Establishment of stable transformants containing both PXR and reporter plasmid and development of high throughput bioassay for PXR-dependent transactivation: The stable transformants Hep-PXR/mdr1(dr4)-Luc and Caco-PXR/mdr1(dr4)-Luc cell lines were generated from the parental cell lines HepG-PXR and Caco-PXR, respectively, according to the following procedure. The parental cell lines HepG-PXR and Caco-PXR, which overexpress PXR, were stably transfected with the luciferase reporter plasmid mdr1(dr4)-Luc. The transfected cells were cultured in DMEM (HepG-PXR cells) or in IMEM (Caco-PXR cells), both media supplemented with 10% fetal bovine serum and neomycin (700 micrograms per milliliter).
(§5) For the induction assay, stable transformants were seeded in 96-wells plates at a density of 1×10^4 cells per well and allowed to recover overnight. Plates were treated with test compounds at varying concentrations, using 3 replicates per dose. After 48 hours of exposure to the test compound, cells were washed with phosphate buffered saline, lysis buffer was applied to the wells, and luciferase substrate added. Following 10 minutes for light adaptation, luminescence was monitored according to the manufacturer's instructions (Packard kit, Biomed).

MDR1 P-glycoprotein mRNA = assay: Northern blot of MDR1 P-glycoprotein expression (Example VI)
From the text: FIG. 31 depicts MDR1 gene expression in LS174T cells as analyzed by Northern blot. […] Total RNA from the colon adenocarcinoma cell line LS174T was isolated and fractionated on a 1% formaldehyde gel and transferred onto a nylon membrane. The RNA blot was hybridized to ^32P-labeled MDR1 cDNA probe (top panel) or 18s rRNA probe for normalization of RNA loading on the gel (bottom panel).
FIG. 32A: Lanes 1 and 2, primary human hepatocytes; lanes 3 and 4, LS174T cells. FIG. 32B: Lanes 1 and 2, HepG2 cells; lanes 3 and 4, HepG2 that overexpress PXR (Hepg-PXR cells). FIG. 32C: Lanes 1 and 2, Caco-2; lanes 3 and 4, Caco-2 cells that overexpress PXR (Caco-PXR cells).
Total RNA from the colon adenocarcinoma cell line LS174T was isolated and fractionated on a 1% formaldehyde gel and transferred onto a nylon membrane. The RNA blot was hybridized to ^32-P-labeled MDR1 cDNA probe (top panels), ^32-P-labeled CYP3A4 cDNA probe (middle panels), or 18s rRNA probe for normalization of RNA loading on the gel (bottom panels).
FIG. 37 depicts MDR1 gene regulation in response to chrysin as studied by Northern blot analysis. […] Total RNA from the hepatocytes was isolated and fractionated on a 1% formaldehyde gel and transferred onto a nylon membrane. The RNA blot was hybridized to ^32-P-labeled MDR1 cDNA probe (top panels), ^32P-labeled CYP3A4 cDNA probe (middle panels), or 18s rRNA probe for normalization of RNA loading on the gel (bottom panels).
Northern Blot analysis for MDR1 P-glycoprotein and CYP3A4 expression: Total RNA was prepared from cells (primary hepatocytes, LS174T, HepG2, or Caco-2) using Trizol reagent (Invitrogen, Carlsbad, Calif.). For Northern blots, 15 micrograms of total RNA was fractionated on a 1% formaldehyde gel and transferred onto a nylon membrane by capillary transfer. A 530-base pair fragment of MDR1 cDNA was obtained from PCR cloning using the sense primer […] The resulting fragment was ^32P-labeled by random priming (Invitrogen, Carlsbad, Calif.) for use as an MDR1 probe. […] All constructs and cDNAs were subjected to sequence analysis. Hybridization was performed with the ExpressHyb system according to the manufacturer's instructions (Clontech, Palo Alto, Calif.).

[5] = tested on: PXR / mdr1(dr4) response element; assay: Caco-PXR/Pgp-Luc stable cell luciferase assay; details: Caco-PXR/Pgp-Luc cells, 48 hours
Description: as §2, §3, §4, §5

CYP1A1 mRNA [6] = assay: Northern blot of CYP1A1 mRNA in HepG2 cells
Description: HepG2 cells were obtained from American Type Culture Collection (ATCC). Cells were grown in DMEM (Gibco/BRL). Twenty-four hours after cells were plated and grown to confluency, they were treated with one of the bioflavonoids, TCDD, or beta-naphthoflavone (Sigma). All inducers were dissolved in DMSO and this solvent was added to control cells at 0.1%.
as §1

CYP1A1 mRNA [7] = assay: Northern blot of CYP1A1 in primary human hepatocytes (Example V); details: hepatocytes
From the text: The isolated RNA was subjected to Northern blot analysis.

[8] = tested on: human CYP1A1 promoter (Ah receptor); assay: 101L cell luciferase assay (HepG2 with human CYP1A1 promoter-luciferase), 96-well; details: 101L cells, 18 hours; 1 to 20 micromolar (resveratrol 10, apigenin 5, quercetin and curcumin 20 micromolar); GTE 0.1 milligrams/ml
Description: Cells were initially seeded in flasks containing media without G418. After an overnight incubation the cultures were changed into media containing G418 for antibiotic selection. After three to five days, cells were removed from flasks by trypsinization and replated on either a twenty-four-well plate at a density of 3.5×10^5 cells per well, or a ninety-six-well plate at a density of 7.5×10^4 cells per well, in DMEM media that was replaced with that containing 0.1% FBS and without G418 or indicator (phenol red). The next day, media containing 0.1% FBS and G418 was added to the cultures. […] For the antagonist experiments, cells were co-treated with a flavonoid and two nanomolar TCDD. All inducers were dissolved in DMSO and this reagent was added to control cells at 0.1%. The cells were treated with varous doses and times (six to eighteen hours). After treatment, the media containing the compound was removed by aspiration and replaced with one-hundred microliters per well of DMEM for direct analysis of luciferase activity. Experiments were performed on 101L cells from frozen stocks on the initial derivation and the passage number was limited to thirty.
Luciferase assays were performed as specified by the manufacturer (LucLite system, Packard Instrument, Meriden, Conn.). Activity was determined using a Packard LumiCount luminometer and results expressed as relative light units or fold increase above control (DMSO treated cells.

[9] = DRE12-6 cells, test compound 3 hours prior to co-treatment with TCDD for 28 hours

O=c1c(O)c(-c2ccc(O)cc2)oc2cc(O)cc(O)c12 [kaempferol]
effect on TCDD-mediated luciferase induction (in words) [1]: effectively inhibited | CYP1A1 mRNA level Subject B (%), normalized to TCDD induction (CYP1A1 mRNA [2]; human, 24 h): 0% | CYP1A1 mRNA level Subject C (%), normalized to benzanthracene induction (CYP1A1 mRNA [2]; human, 24 h): 10% | CYP1A1 mRNA level Subject D (%), normalized to TCDD induction (CYP1A1 mRNA [2]; human, 24 h): 0%

Clc1ccccc1C(c1ccccc1)(c1ccccc1)n1ccnc1 [clotrimazole]
luciferase response curve (in words) [3]: dose-dependent

CC#C[C@]1(O)CC[C@H]2[C@@H]3CCC4=CC(=O)CCC4=C3[C@@H](c3ccc(N(C)C)cc3)C[C@@]21C [RU486, mifepristone]
dose dependence of luciferase induction (in words) [4]: dose-dependent luciferase induction | MDR1 expression in LS174T cells (in words) (MDR1 P-glycoprotein mRNA; LS174T cells, 48 hours): effectively induced | dose dependence of luciferase induction (in words) [5]: dose-dependent luciferase induction | strength of luciferase induction (in words) [5]: strongly induce

O=c1cc(-c2ccccc2)oc2ccc3ccccc3c12 [beta-naphthoflavone]
HepG2 CYP1A1 mRNA (%), normalized to TCDD induction (CYP1A1 mRNA [6]): 50%

C[C@@H]1C[C@H]2[C@@H]3CCC4=CC(=O)C=C[C@]4(C)[C@@]3(F)[C@@H](O)C[C@]2(C)[C@@]1(O)C(=O)CO [dexamethasone]
dose dependence of luciferase induction (in words) [4]: dose-dependent luciferase induction | strength of luciferase induction (in words) [4]: Weaker luciferase induction | dose dependence of luciferase induction (in words) [5]: dose-dependent luciferase induction

Cc1ccc2cc3c(ccc4ccccc43)c3c2c1CC3 [3-MC, 3-methylcholanthrene]
AhR-mediated luciferase induction (in words) ([1]; DRE12-6 cells, 28 hours): dose-dependent increase | CYP1A1 induction by Northern blot (in words) (CYP1A1 mRNA [7]): maximum induction

Clc1cc(-c2ccccc2)c(Cl)c(Cl)c1Cl [2,3,4,5 tetrachlorobiphenyl]
effect on TCDD-mediated luciferase induction (in words) [1, 9]: effectively inhibited

O=c1cc(-c2ccc(O)cc2)oc2cc(O)cc(O)c12 [apigenin]
effect on TCDD-mediated luciferase induction (in words) [1]: effectively inhibited | HepG2 CYP1A1 mRNA (%), normalized to TCDD induction (CYP1A1 mRNA [6]; human): 1% | CYP1A1 mRNA level Subject B (%), normalized to TCDD induction (CYP1A1 mRNA [2]; human, 24 h): 0% | CYP1A1 mRNA level Subject C (%), normalized to benzanthracene induction (CYP1A1 mRNA [2]; human, 24 h): 3% | CYP1A1 mRNA level Subject D (%), normalized to TCDD induction (CYP1A1 mRNA [2]; human, 24 h): 0%

COc1cc(/C=C/C(=O)CC(=O)/C=C/c2ccc(O)c(OC)c2)ccc1O [curcumin]
induction of CYP1A1 mRNA in isolated hepatocytes (in words) (CYP1A1 mRNA [2]): did not elicit induction

Oc1ccc(C=Cc2cc(O)cc(O)c2)cc1 [resveratrol]
HepG2 CYP1A1 mRNA (%), normalized to TCDD induction (CYP1A1 mRNA [6]; human): 12% | CYP1A1 mRNA level Subject A (%), normalized to TCDD induction (CYP1A1 mRNA [2]; human, 24 h): 5% | CYP1A1 mRNA level Subject B (%), normalized to TCDD induction (CYP1A1 mRNA [2]; human, 24 h): 0% | CYP1A1 mRNA level Subject C (%), normalized to benzanthracene induction (CYP1A1 mRNA [2]; human, 24 h): 12% | CYP1A1 mRNA level Subject D (%), normalized to TCDD induction (CYP1A1 mRNA [2]; human, 24 h): 0%

O=C1C[C@@H](c2ccc(O)cc2)Oc2cc(O)cc(O)c21 [naringenin]
HepG2 CYP1A1 mRNA (%), normalized to TCDD induction (CYP1A1 mRNA [6]; human): 0% | CYP1A1 mRNA level Subject D (%), normalized to TCDD induction (CYP1A1 mRNA [2]; human, 24 h): 0%

COc1ccc(C(c2ccc(OC)cc2)C(Cl)(Cl)Cl)cc1 [methoxychlor]
strength of luciferase induction (in words) [4]: strongly induced | luciferase response curve (in words) [3]: dose-dependent | effect on TCDD-mediated luciferase induction (in words) [1, 9]: effectively inhibited

CO[C@H]1/C=C/O[C@@]2(C)Oc3c(C)c(O)c4c(O)c(c(/C=N/N5CCN(C)CC5)c(O)c4c3C2=O)NC(=O)/C(C)=C\C=C\[C@H](C)[C@H](O)[C@@H](C)[C@@H](O)[C@@H](C)[C@H](OC(C)=O)[C@@H]1C [rifampicin]
MDR1 P-glycoprotein expression in Hep-PXR stable cells (in words) (MDR1 P-glycoprotein mRNA; human): did not induce MDR1 P-glycoprotein expression further

C[C@@]12CCC[C@H]1[C@@H]1CC[C@H]3C[C@@H](O)CC[C@]3(C)[C@H]1CC2 [androstanole]
dose dependence of luciferase induction (in words) [4]: dose-dependent luciferase induction | dose dependence of luciferase induction (in words) [5]: dose-dependent luciferase induction

(−)-epigallocatechin gallate [EGCG]
fold induction of CYP1A1-promoter-mediated luciferase activity by flavonoids [8]: negligible effects

O=c1c(O)c(-c2ccc(O)c(O)c2)oc2cc(O)cc(O)c12 [quercetin]
effect on TCDD-mediated luciferase induction (in words) [1]: effectively inhibited | induction of CYP1A1 mRNA in isolated hepatocytes (in words) (CYP1A1 mRNA [2]): did not elicit induction

Reference: patent US20040077080A1, “Compositions and methods for induction of proteins involved in xenobiotic metabolism” (priority 2000, published 2004)
